{"source": "patent US7365096B2", "about": "“Methods for selectively inhibiting Janus tyrosine kinase 3 (Jak3)” (Board of Regents, The University of Texas System, priority 2002, dated 2008)", "tested_on": "p44/42 Erk1/2", "experiment": "IL-2-mediated p44/42 Erk1/2 phosphorylation in PHA-activated T cells", "type": "cell-based", "conditions": "human T-cells, 2 hours drug", "experimental": "Solubilization of membrane proteins, immunoprecipitation, and Western blot analysis. Frozen cell pellets were thawed on ice and solubilized in 1% TX-100 lysis buffer (10^8 cells/ml) and clarified by centrifugation, as previously described.^16 For human T-cells, supernates were incubated rotating end over end for 2 hours at 4° C. with either 5 μl/ml polyclonal rabbit antisera raised against peptides derived from the unique COOH-termini of Jak3 (amino acid [a.a.] 1104-1124), carboxyl termini of human Stat5a (a.a. 775-794) or Stat5b (a.a. 777-787).^26 Ab and immunoprecipitated proteins were captured by incubation for 30 minutes with Protein A-Sepharose beads (Pharmacia, Piscataway, N.J.), sedimented for purification, and eluted by boiling in 2×SDS-sample buffer (20% Glycerol, 10% 2-Mercaptoethanol, 4.6% SDS, 0.004% Bromophenol blue in 0.125 M Tris pH 6.8) for 4 minutes. For phosphoMapk assays, approximately 25 μg of total cell lysate was dissociated in SDS-sample buffer and separated on 10% (all others on 7.5%) SDS-PAGE under reducing conditions. […]", "note": "“Also recorded” adds a separate entry of the source."}
{"smiles": "CN(C)CC1CCCCCCCCCC(CN(C)C)C1=O", "note": "(mixture of isomers) [649641P (NC1153)]", "values": [{"measurement": "IL2-mediated Erk1/2 phosphorylation / activation", "value": "blocks IL2-mediated Erk1/2 activation; also recorded: inhibited tyrosine phosphorylation"}]}
